# Reference: patent publication US8669291B2, “Phenyl substituted cycloalkylamines as monoamine reuptake inhibitors” (Sunovion Pharmaceuticals Inc., priority 2007, dated 2014)
# Like-named read-outs stand apart in the source and are kept apart here.
# Assays:
# [1] = biological target: T1, human serotonin (5-HT) reuptake transporter (Homo sapiens, UniProt P31645); test: functional uptake assay, human 5-HT reuptake transporter; type: cell-based
# T1 construct: expressed in transfected cells
# Method: (§1) Compounds were tested for their inhibition of functional uptake of serotonin (5-HT), norepinephrine (NE), and dopamine (DA), in synaptosomes prepared from rat whole brain, hypothalamus, or corpus striatum, respectively, and/or using recombinant human transporters.
# [2] = biological target: T2, human norepinephrine (NE) reuptake transporter (Homo sapiens, UniProt P23975); test: functional uptake assay, human NE reuptake transporter; type: cell-based; details: read-out: NE IC50
# T2 construct: expressed in transfected cells
# Method: as §1
# [3] = biological target: T3, human dopamine (DA) reuptake transporter (Homo sapiens, UniProt Q01959); test: functional uptake assay, human DA reuptake transporter; type: cell-based
# T3 construct: expressed in transfected cells
# Method: as §1
# [4] = human metabolic stability (HLM t1/2); type: in vitro ADME; details: human liver microsomes
# Text: 4b. In Vitro PK Data (Human Metabolic Stability, Inhibition of CYP450 Enzymes, Inhibition of HERG Current)
# [5] = in vivo; cited from earlier work
# serotonin uptake sites = serotonin uptake sites (Homo sapiens, UniProt P31645); details: cited from earlier work
# [6] = Example 4a, human reuptake transporter, read-out: 5-HT IC50
# [7] = Example 6 summary of selected in vitro data, read-out: 5-HT IC50
# [8] = Example 4a, human reuptake transporter
# [9] = Example 6 summary of selected in vitro data
# [10] = Example 4a, human reuptake transporter, read-out: DA IC50
# [11] = Example 6 summary of selected in vitro data, read-out: DA IC50
# T2 sequence (P23975 whole entry): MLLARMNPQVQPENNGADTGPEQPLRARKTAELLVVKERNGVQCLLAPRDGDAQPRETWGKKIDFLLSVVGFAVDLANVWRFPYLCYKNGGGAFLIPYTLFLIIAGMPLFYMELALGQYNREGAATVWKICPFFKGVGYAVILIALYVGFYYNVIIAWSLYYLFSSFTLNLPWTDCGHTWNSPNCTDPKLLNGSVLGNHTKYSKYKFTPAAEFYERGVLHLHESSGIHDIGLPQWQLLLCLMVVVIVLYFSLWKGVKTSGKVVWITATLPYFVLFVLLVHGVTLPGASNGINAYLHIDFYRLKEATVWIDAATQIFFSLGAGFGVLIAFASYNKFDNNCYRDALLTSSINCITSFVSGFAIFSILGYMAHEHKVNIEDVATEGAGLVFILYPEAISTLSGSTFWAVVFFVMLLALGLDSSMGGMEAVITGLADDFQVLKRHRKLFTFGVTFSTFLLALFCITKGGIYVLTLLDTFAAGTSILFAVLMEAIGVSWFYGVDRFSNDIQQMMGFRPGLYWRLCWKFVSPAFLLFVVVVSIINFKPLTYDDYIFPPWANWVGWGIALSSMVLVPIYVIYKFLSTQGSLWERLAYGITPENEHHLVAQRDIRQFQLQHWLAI
# T3 sequence (Q01959 whole entry): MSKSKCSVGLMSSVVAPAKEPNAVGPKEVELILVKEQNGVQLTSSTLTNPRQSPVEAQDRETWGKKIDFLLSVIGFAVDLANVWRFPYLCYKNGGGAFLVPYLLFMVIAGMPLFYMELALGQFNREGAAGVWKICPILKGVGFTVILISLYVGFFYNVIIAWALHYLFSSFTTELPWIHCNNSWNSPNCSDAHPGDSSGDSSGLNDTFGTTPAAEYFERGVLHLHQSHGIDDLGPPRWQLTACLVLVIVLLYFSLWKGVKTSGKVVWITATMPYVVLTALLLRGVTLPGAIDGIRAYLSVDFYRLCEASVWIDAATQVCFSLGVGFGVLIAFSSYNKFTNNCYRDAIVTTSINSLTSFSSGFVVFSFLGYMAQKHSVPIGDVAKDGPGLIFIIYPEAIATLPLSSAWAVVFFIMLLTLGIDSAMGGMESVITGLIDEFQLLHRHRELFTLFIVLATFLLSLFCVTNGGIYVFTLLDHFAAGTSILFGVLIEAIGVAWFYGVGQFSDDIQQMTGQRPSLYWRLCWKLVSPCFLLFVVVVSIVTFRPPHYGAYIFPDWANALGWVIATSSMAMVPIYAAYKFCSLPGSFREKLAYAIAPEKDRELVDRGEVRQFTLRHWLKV
# T1 sequence (P31645 whole entry): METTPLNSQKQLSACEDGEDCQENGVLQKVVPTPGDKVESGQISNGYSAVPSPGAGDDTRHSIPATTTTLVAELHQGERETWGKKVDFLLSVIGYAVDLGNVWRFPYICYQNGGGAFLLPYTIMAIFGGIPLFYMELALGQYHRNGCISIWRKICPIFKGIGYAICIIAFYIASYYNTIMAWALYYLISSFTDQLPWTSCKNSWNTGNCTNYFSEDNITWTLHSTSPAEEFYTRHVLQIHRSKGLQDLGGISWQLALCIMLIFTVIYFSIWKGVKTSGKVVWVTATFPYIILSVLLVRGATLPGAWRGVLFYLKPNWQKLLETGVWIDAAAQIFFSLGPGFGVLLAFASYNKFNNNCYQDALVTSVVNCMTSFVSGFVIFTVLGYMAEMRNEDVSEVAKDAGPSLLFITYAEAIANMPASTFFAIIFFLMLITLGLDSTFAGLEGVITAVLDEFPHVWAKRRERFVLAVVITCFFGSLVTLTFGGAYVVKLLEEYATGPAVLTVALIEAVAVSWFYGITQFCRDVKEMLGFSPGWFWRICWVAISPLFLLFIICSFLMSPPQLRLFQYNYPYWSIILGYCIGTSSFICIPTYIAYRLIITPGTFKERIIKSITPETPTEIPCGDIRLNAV
# Chain of serotonin uptake sites (P31645 whole entry): as above
SMILES,"IC50 [1, 6] [nM]","IC50 [1, 7] [nM]","IC50 [2, 8] [µM]","IC50 [2, 9] [µM]","IC50 [3, 10] [nM]","IC50 [3, 11] [nM]",half-life [4] [min],immobility in the tail suspension test [5],affinity for the serotonin uptake sites versus the racemic compound (serotonin uptake sites),"IC50 ([1]; read-out: 5-HT IC50 nM, Example 6 summary of selected in vitro data) [nM]","IC50 ([3]; read-out: DA IC50 nM, Example 6 summary of selected in vitro data) [nM]"
"NC[C@@H]1CCCC[C@@]1(O)c1ccc(Cl)c(Cl)c1 (relative stereo) [Compound 9, cis-2-(aminomethyl)-1-(3,4-dichlorophenyl)cyclohexanol]",> 10000,> 10000,1 to 5,1 to 5,10 to 200,10 to 200,,,,,
"CN(C)C[C@H]1CCCC[C@]1(O)c1ccc(Cl)c(Cl)c1 (single isomer, unassigned) [Compound 1, cis-1-(3,4-dichlorophenyl)-2-((dimethylamino)methyl)cyclohexanol]",1 to 2000,1 to 2000,0.201 to 1,0.201 to 1,201 to 1000,201 to 1000,25 to 175,,,,
"NCC1CCCCC1(O)c1ccc(Cl)c(Cl)c1 (single isomer, unassigned) [Compound 8, cis-2-(aminomethyl)-1-(3,4-dichlorophenyl)cyclohexanol]",7000 to 10000,7000 to 10000,> 5,> 5,201 to 1000,201 to 1000,,,,,
"Clc1ccc([C@@]23CNC[C@@H]2C3)cc1Cl (single isomer, unassigned) [DOV 21,947, (+)-1-(3,4-dichlorophenyl)-3-azabicyclo[3.1.0]hexane]",,,,,,,,dose-dependent reduction in immobility,significantly greater affinity,,
C[C@@]1(CN)CCCC[C@@]1(O)c1ccc(Cl)c(Cl)c1 [Compound 15 A/B],,2000 to 7000,,> 5,,201 to 1000,,,,,
CNC[C@]1(C)CCCC[C@@]1(O)c1ccc(Cl)c(Cl)c1 [Compound 16 A/B],,1 to 2000,,> 5,,10 to 200,,,,,
CN(C)C[C@]1(C)CCCC[C@@]1(O)c1ccc(Cl)c(Cl)c1 [Compound 17 A/B],,2000 to 7000,,> 5,,201 to 1000,,,,,
NC[C@]1(F)CCCC[C@@]1(O)c1ccc(Cl)c(Cl)c1 [Compound 21 A/B],,,,> 5,,,,,,1 to 2000,10 to 200
CN(C)C[C@]1(F)CCCC[C@@]1(O)c1ccc(Cl)c(Cl)c1 [Compound 23 A/B],,2000 to 7000,,> 5,,201 to 1000,,,,,
